Measured values published in patent US8273774B2, “Phenoxypyridinylamide compounds” (AstraZeneca AB, priority 2008, dated 2012).

biological target: recombinant Human Phosphodiesterase B2 (PDE4B2) (Homo sapiens, UniProt Q07343); assay: Human Phosphodiesterase B2 Radiometric Assay; assay type: biochemical; details: 0.1 μg/mL recombinant PDE4B2; preincubated at 30 C for 30 min; [3H]cyclic AMP 8 nM, stopped after 20 min; yttrium silicate SPA beads; read-out: PDE4B2 pIC50 (converted)
How it was run: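 Compounds preincubated 30 min at 30 C with 0.1 μg/mL recombinant PDE4B2 in 50 mM HEPES pH 7.5, 8.3 mM MgCl2, 1.7 mM EGTA, 0.01% Brij 35.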

Sequence of recombinant Human Phosphodiesterase B2 (PDE4B2) (Q07343 1-564 isoform Q07343-2): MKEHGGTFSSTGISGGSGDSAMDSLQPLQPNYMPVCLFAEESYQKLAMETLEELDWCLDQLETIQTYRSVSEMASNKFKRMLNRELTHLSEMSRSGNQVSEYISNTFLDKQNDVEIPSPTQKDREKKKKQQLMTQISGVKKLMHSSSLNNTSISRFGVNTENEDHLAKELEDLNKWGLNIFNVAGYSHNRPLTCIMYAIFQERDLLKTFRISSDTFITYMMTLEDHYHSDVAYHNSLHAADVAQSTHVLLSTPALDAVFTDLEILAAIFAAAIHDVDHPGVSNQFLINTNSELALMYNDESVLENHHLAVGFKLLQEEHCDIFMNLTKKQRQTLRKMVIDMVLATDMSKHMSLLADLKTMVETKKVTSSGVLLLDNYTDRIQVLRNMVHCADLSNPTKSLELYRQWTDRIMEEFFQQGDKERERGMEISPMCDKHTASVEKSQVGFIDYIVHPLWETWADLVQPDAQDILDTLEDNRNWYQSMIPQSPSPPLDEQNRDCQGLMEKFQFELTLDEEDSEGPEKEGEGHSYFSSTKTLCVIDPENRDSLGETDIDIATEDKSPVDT

In order of falling IC50:
1. CC(C)NC(=O)CN1CCN(Cc2ccc(-c3cccc(Oc4ncc(F)cc4C(=O)N[C@H]4CC[C@@H](NC(=O)c5cc6n(n5)CCCC6)CC4)c3)c(CN3CCOCC3)c2)CC1 [Example 200, N-((1s,4s)-4-(5-fluoro-2-(4′-((4-(2-(isopropylamino)-2-oxoethyl)piperazin-1-yl)methyl)-2′-(morpholinomethyl)biphenyl-3-yloxy)nicotinamido)cyclohexyl)-4,5,6,7-tetrahydropyrazolo[1,5-a]pyridine-2-carboxamide]  0.0251 nM
2. Cn1ccc(C(=O)N[C@H]2CC[C@@H](NC(=O)c3cc(F)cnc3Oc3cccc(-c4ccc(CN5CCSCC5)cc4CN4CCOCC4)c3)CC2)n1 [Example 199, 5-fluoro-N-((1s,4s)-4-(1-methyl-1H-pyrazole-3-carboxamido)cyclo-hexyl)-2-(2′-(morpholinomethyl)-4′-(thiomorpholinomethyl)biphenyl-3-yloxy)nicotinamide]  0.02 nM
3. CC(C)NC(=O)CN1CCN(Cc2ccc(-c3cccc(Oc4ncc(F)cc4C(=O)N[C@H]4CC[C@@H](NC(=O)c5cccc6[nH]cnc56)CC4)c3)c(CN3CCOCC3)c2)CC1 [Example 201, N-((1s,4s)-4-(5-fluoro-2-(4′-((4-(2-(isopropylamino)-2-oxoethyl)piperazin-1-yl)methyl)-2′-(morpholinomethyl)biphenyl-3-yloxy)nicotinamido)cyclohexyl)-1H-benzo[d]imidazole-4-carboxamide]  0.0158 nM
4. C[C@@H]1CN(Cc2ccc(-c3cccc(Oc4ncc(F)cc4C(=O)N[C@H]4CC[C@@H](NC(=O)c5cccc6[nH]cnc56)CC4)c3)c(CN3CCSCC3)c2)C[C@H](C)N1 [Example 202, N-((1s,4s)-4-(2-(4′-(((3S,5R)-3,5-dimethylpiperazin-1-yl)methyl)-2′-(thiomorpholinomethyl)biphenyl-3-yloxy)-5-fluoronicotinamido)cyclohexyl)-1H-benzo[d]imidazole-4-carboxamide]  0.0126 nM
